Data as given in patent US20260347336A1, “PRODRUGS, FORMULATIONS AND METHODS THEREOF” (OCULAR THERAPEUTIX, INC., priority 2022, published 2026).
In brackets after ≈: the same amount, converted by molar mass.

Columns and labels:
[1] = Solubility of axitinib and prodrug in phosphate buffer saline pH 7.4, 24 hour at 22 °C (Example 2); type: physicochemical
Procedure: Solubility testing was performed with the following test items and conditions: • Test items: axitinib (99.99% purity by HPLC); axitinib-N-mPEG-succinoyloxymethyl prodrug (93.6% purity by HPLC) • Test media: phosphate buffer saline pH 7.4 • Incubation condition: 24 hour at 22 °C with continuous shaking • Test concentration: 1 mg/mL • Data analysis: Solubility of test item was determined by HPLC analysis with calibration curve

[2] = Stability in phosphate buffer saline (Example 8); type: physicochemical; conditions: PBS, pH-7.40; for remaining at 24 h / remaining at 72 h / remaining at 168 h: phosphate buffer saline, pH 7.4, read-out: % remaining compared to Day 0; for remaining at 24 h: Day 1; for remaining at 72 h: Day 3; for remaining at 168 h: Day 7
Procedure: Axitinib prodrugs of the present invention were tested for stability in phosphate buffer saline (PBS, pH-7.40).

[3] = cited from earlier work
[4] = Solubility of axitinib prodrugs in phosphate buffer saline (Example 7); type: physicochemical; conditions: phosphate buffer saline (PBS, pH-7.40)
Procedure: Axitinib prodrugs of the present invention were tested for solubility in phosphate buffer saline (PBS, pH-7.40).

[5] = Particle size after micronization (Example 6); type: physicochemical; conditions: micronized
From the text: The micronization of the axitinib-N-m (PEG)2-oxymethyl prodrug obtained in Example 6 in a dry dispersion was D90=12.4 μm; D50=3.6 μm and D10=0.6 μm and dispersed in water was D90=12.2 μm; D50=5.2 μm and D10=1.1 μm.

[6] = phosphate buffer saline pH 7.4, 24 hour at 22 °C, continuous shaking, test concentration 1 mg/mL, HPLC

% remaining compared to Day 0 [2] [%]	remaining at 24 h [2] [%]	remaining at 72 h [2] [%]	remaining at 168 h [2] [%]	solubility ([4]; pH 7.4, read-out: Solubility) [µg/mL]	solubility [4]	Compound	other results
100.00	96.7	96.2	91.8			CNC(=O)c1ccccc1Sc1ccc2c(/C=C/c3ccccn3)n[nH]c2c1 [Axitinib, axitinib, reference compound]	solubility at 24 h [1, 6]: < 0.78 µg/mL; literature reported solubility [3]: about 0.2 mcg/mL
				217 (≈ 421 µM)		CNC(=O)c1ccccc1Sc1ccc2c(/C=C/c3ccccn3)nn(COC(=O)CCC(=O)O)c2c1 [Axitinib-N-Succinoyloxymethyl Prodrug]	
100.00	38.8	6.7	5		Not Soluble	CNC(=O)c1ccccc1Sc1ccc2c(/C=C/c3ccccn3)nn(COC(=O)CCOC)c2c1 [Axitinib-N-m(PEG)1-oxymethyl prodrug]	
100.00	45.9	30.5	16.9	1.1 (≈ 2.01 µM)		CNC(=O)c1ccccc1Sc1ccc2c(/C=C/c3ccccn3)nn(COC(=O)CCOCCOC)c2c1 [Axitinib-N-m(PEG)2-oxymethyl prodrug]	D10 ([5]; dispersed in water): 1.1 μm; D50 ([5]; dispersed in water): 5.2 μm; D90 ([5]; dispersed in water): 12.2 μm; D10 ([5]; dry dispersion): 0.6 μm; D50 ([5]; dry dispersion): 3.6 μm; D90 ([5]; dry dispersion): 12.4 μm
100.00	53.9	24	12.7	6.16 (≈ 10.4 µM)		CNC(=O)c1ccccc1Sc1ccc2c(/C=C/c3ccccn3)nn(COC(=O)CCOCCOCCOC)c2c1 [Axitinib-N-m(PEG)3-oxymethyl prodrug]	
					99.37 µg/mL	axitinib-N-mPEG-succinoyloxymethyl [N-mPEG succinoyloxymethyl Prodrug]	solubility [1, 6]: 99.37 µg/mL; solubility enhancement of prodrug ([1]; versus axitinib): ~ 500 ×
